Laboratory results from patent publication US4591604A, “Method of inhibiting the complement system by administering multisulfonated naphthalene ureas” (American Cyanamid Company, priority 1984, dated 1986).
Structures can show the parent of a compound that is named as a salt.

How the values were obtained:
[1] = molecular target: activated human C1 (Homo sapiens, UniProt P09871); test: Test Code 026 (C1 inhibitor); assay type: biochemical; conditions: serial twofold dilution assay; higher well number indicates higher activity
[2] = tested on: serum complement activity; test: Guinea Pig Intraperitoneal Test (GPIP); assay type: in vivo; conditions: 200 mg/kg i.p.; for In vivo Activity Guinea Pigs Intraperitoneal % Lowering, 30 minutes: blood sample 30 minutes after injection; for In vivo Activity Guinea Pigs Intraperitoneal % Lowering, 60 minutes: blood sample 60 minutes after injection; for In vivo Activity Guinea Pigs Intraperitoneal % Lowering, 120 minutes: blood sample 120 minutes after injection
Procedure: (§1) An active inhibitor protects C2 from C1 and C4; (ii) Test Code 036 (C-Shunt inhibitor)--In this test human erythrocytes rendered fragile are lysed in autologous serum via the shunt pathway activated by cobra venom factor in the presence of appropriate dilutions of the test compound. Inhibition of the shunt pathway results in failure of lysis; (iii) Cap 50 Test--Here, appropriate amounts of the test compound are added to a pool of guinea pig serum in vitro, after which the complement level is determined in undiluted serum by the serum capillary tube assay of U.S. Pat. No. 3,876,376. The concentration of compound inhibiting 50% is reported; and (iv) Guinea Pig Intraperitoneal Test (GPIP)--Guinea pigs weighing about 300 g are dosed intraperitoneally (i.p.) with 200 mg/kg of the test compound dissolved in saline and adjusted to pH 7-8. Approximately 0.4 ml blood samples, taken by orbital sinus puncture 30 minutes and one hour after injections, are collected directly into centrifuge tubes; 5 ml blood samples, taken by decapitation 2 hours after injection, are collected directly into diSPo® beakers. The samples were allowed to clot, centrifuged, and the resultant sera were assayed for complement activity using the capillary complement assay. Percent inhibition is calculated by comparison with simultaneous controls. The results of the GPIP appear in Table I together with results of Test Code 026, 036 and Cap 50.

[3] = tested on: shunt pathway activated by cobra venom factor (lysis of human erythrocytes in autologous serum); test: Test Code 036 (C-Shunt inhibitor); assay type: cell-based; conditions: serial twofold dilution assay; higher well number indicates higher activity
Procedure: as §1, with “The results of the GPIP appear in Table I together with results of Test Code 026, 036 and Cap 50.” left out

[4] = tested on: complement system; conditions: reported in the literature; cited from earlier work
[5] = tested on: hereditary angioneurotic edema; conditions: reported in the literature; cited from earlier work
[6] = tested on: human serum complement; conditions: in vitro and in vivo, judged by reduction in total hemolytic complement activity; cited from earlier work

Compound: O=C(Nc1cc2c(O)cc(S(=O)(=O)[O-])cc2cc1S(=O)(=O)[O-])Nc1cc2c(O)cc(S(=O)(=O)[O-])cc2cc1S(=O)(=O)[O-].[Na+].[Na+].[Na+].[Na+] [3,3'-Ureylenebis(5-hydroxy-2,7-naphthalenedisulfonic acid), tetrasodium salt]
- C1 026 Wells [1]: +4 Wells
- In vivo Activity Guinea Pigs Intraperitoneal % Lowering, 30 minutes [2]: 4%
- In vivo Activity Guinea Pigs Intraperitoneal % Lowering, 60 minutes [2]: 1%
- In vivo Activity Guinea Pigs Intraperitoneal % Lowering, 120 minutes [2]: 28%

Compound: O=C(Nc1cc(S(=O)(=O)[O-])c2cc([N+](=O)[O-])cc(S(=O)(=O)[O-])c2c1)Nc1cc(S(=O)(=O)[O-])c2cc([N+](=O)[O-])cc(S(=O)(=O)[O-])c2c1.[Na+].[Na+].[Na+].[Na+] [3,3'-Ureylenebis(7-nitro-1,5-naphthalenedisulfonic acid), tetrasodium salt]
- C1 026 Wells [1]: +3 Wells

Compound: O=C(Nc1cc2ccc(S(=O)(=O)[O-])cc2cc1S(=O)(=O)[O-])Nc1cc2ccc(S(=O)(=O)[O-])cc2cc1S(=O)(=O)[O-].[Na+].[Na+].[Na+].[Na+] [3,3'-Ureylenedi-2,7-naphthalenedisulfonic acid, tetrasodium salt]
- C1 026 Wells [1]: +3 Wells

Compound: O=C(Nc1cc(S(=O)(=O)O)cc2cc(S(=O)(=O)O)cc(OS(=O)(=O)c3ccccc3)c12)Nc1cc(S(=O)(=O)O)cc2cc(S(=O)(=O)O)cc(OS(=O)(=O)c3ccccc3)c12 [4,4'-Ureylenebis(5-hydroxy-2,7-naphthalenedisulfonic acid), tetrasodium salt dibenzenesulfonate]
- C1 026 Wells [1]: +3 Wells

Compound: O=C(Nc1ccc(S(=O)(=O)[O-])c2ccc(S(=O)(=O)[O-])cc12)Nc1ccc(S(=O)(=O)[O-])c2ccc(S(=O)(=O)[O-])cc12.[Na+].[Na+].[Na+].[Na+] [4,4'-Ureylenedi-1,6-naphthalenedisulfonic acid, tetrasodium salt]
- C1 026 Wells [1]: +3 Wells

Compound: O=C(Nc1ccc(S(=O)(=O)[O-])c2ccccc12)Nc1ccc(S(=O)(=O)[O-])c2ccccc12.[Na+].[Na+] [4,4'-Ureylenedi-1-naphthalenesulfonic acid, disodium salt]
- C1 026 Wells [1]: +2 Wells

Compound: O=C(Nc1cc(S(=O)(=O)[O-])cc2ccc(S(=O)(=O)[O-])cc12)Nc1cc(S(=O)(=O)[O-])cc2ccc(S(=O)(=O)[O-])cc12.[Na+].[Na+].[Na+].[Na+] [4,4'-Ureylenedi-2,6-naphthalenedisulfonic acid, tetrasodium salt]
- C1 026 Wells [1]: +2 Wells

Compound: O=C(Nc1cc(S(=O)(=O)[O-])cc2cc(S(=O)(=O)[O-])ccc12)Nc1cc(S(=O)(=O)[O-])cc2cc(S(=O)(=O)[O-])ccc12.[Na+].[Na+].[Na+].[Na+] [4,4'-Ureylenedi-2,7-naphthalenedisulfonic acid, tetrasodium salt]
- C1 026 Wells [1]: +3 Wells

Compound: O=C(Nc1ccc2c(S(=O)(=O)[O-])cc(S(=O)(=O)[O-])cc2c1)Nc1ccc2c(S(=O)(=O)[O-])cc(S(=O)(=O)[O-])cc2c1.[Na+].[Na+].[Na+].[Na+] [6,6'-Ureylenedi-1,3-naphthalenedisulfonic acid, tetrasodium salt]
- C1 026 Wells [1]: +3 Wells

Compound: O=C(Nc1ccc2c(O)cc(S(=O)(=O)O)cc2c1)Nc1ccc2c(O)cc(S(=O)(=O)O)cc2c1 [6,6'-ureylenebis(1-hydroxy-3-naphthalenesulfonic acid)]
- C1 026 Wells [1]: +1 Wells

Compound: O=C(Nc1cc(S(=O)(=O)[O-])c2cc(S(=O)(=O)[O-])cc(S(=O)(=O)[O-])c2c1)Nc1cc(S(=O)(=O)[O-])c2cc(S(=O)(=O)[O-])cc(S(=O)(=O)[O-])c2c1.[Na+].[Na+].[Na+].[Na+].[Na+].[Na+] [7,7'-Ureylenedi-1,3,5-naphthalenetrisulfonic acid, hexasodium salt]
- C1 026 Wells [1]: +6 Wells
- C-Shunt Inhibition 036 Wells [3]: +1 Wells

Compound: O=C(Nc1ccc2cc(S(=O)(=O)O)cc(O)c2c1)Nc1ccc2cc(S(=O)(=O)O)cc(O)c2c1 [7,7'-ureylenebis(1-hydroxy-3-naphthalenesulfonic acid)]
- C1 026 Wells [1]: +2 Wells

Compound: O=S(=O)([O-])c1cc(NC(=S)Nc2cc(S(=O)(=O)[O-])cc3cc(S(=O)(=O)[O-])cc(S(=O)(=O)[O-])c23)c2c(S(=O)(=O)[O-])cc(S(=O)(=O)[O-])cc2c1.[Na+].[Na+].[Na+].[Na+].[Na+].[Na+] [8,8'-(2-Thioureylene)di-1,3,6-naphthalenetrisulfonic acid, hexasodium salt]
- C1 026 Wells [1]: +5 Wells
- In vivo Activity Guinea Pigs Intraperitoneal % Lowering, 30 minutes [2]: 41%
- In vivo Activity Guinea Pigs Intraperitoneal % Lowering, 60 minutes [2]: 20%
- In vivo Activity Guinea Pigs Intraperitoneal % Lowering, 120 minutes [2]: 42%

Compound: O=C(Nc1ccc(S(=O)(=O)[O-])c2cc(S(=O)(=O)[O-])cc(S(=O)(=O)[O-])c12)Nc1ccc(S(=O)(=O)[O-])c2cc(S(=O)(=O)[O-])cc(S(=O)(=O)[O-])c12.[Na+].[Na+].[Na+].[Na+].[Na+].[Na+] [8,8'-Ureylenedi-1,3,5-naphthalenetrisulfonic acid, hexasodium salt]
- In vivo Activity Guinea Pigs Intraperitoneal % Lowering, 30 minutes [2]: 92%
- In vivo Activity Guinea Pigs Intraperitoneal % Lowering, 60 minutes [2]: 92%
- In vivo Activity Guinea Pigs Intraperitoneal % Lowering, 120 minutes [2]: 94%

Compound: O=C(Nc1cc(S(=O)(=O)[O-])cc2cc(S(=O)(=O)[O-])cc(S(=O)(=O)[O-])c12)Nc1cc(S(=O)(=O)[O-])cc2cc(S(=O)(=O)[O-])cc(S(=O)(=O)[O-])c12.[Na+].[Na+].[Na+].[Na+].[Na+].[Na+] [8,8'-Ureylenedi-1,3,6-naphthalenetrisulfonic acid, hexasodium salt]
- C1 026 Wells [1]: +5 Wells
- In vivo Activity Guinea Pigs Intraperitoneal % Lowering, 30 minutes [2]: 25%
- In vivo Activity Guinea Pigs Intraperitoneal % Lowering, 60 minutes [2]: 61%
- In vivo Activity Guinea Pigs Intraperitoneal % Lowering, 120 minutes [2]: 65%

Compound: O=C(Nc1cc(S(=O)(=O)[O-])cc2cccc(S(=O)(=O)[O-])c12)Nc1cc(S(=O)(=O)[O-])cc2cccc(S(=O)(=O)[O-])c12.[Na+].[Na+].[Na+].[Na+] [8,8'-Ureylenedi-1,6-naphthalenedisulfonic acid, tetrasodium salt]
- C1 026 Wells [1]: +3 Wells

Compound: Nc1ccc2cc(S(=O)(=O)[O-])cc(O)c2c1N=Nc1ccc(NC(=O)Nc2ccc(N=Nc3c(N)ccc4cc(S(=O)(=O)[O-])cc(O)c34)c(S(=O)(=O)[O-])c2)cc1S(=O)(=O)[O-].[Na+].[Na+].[Na+].[Na+] [chlorazol fast pink, 3,3'-ureylenebis[6-(2-amino-8-hydroxy-6-sulfo-1-naphthylazo)benzenesulfonic acid], tetrasodium salt]
- anti-complementary effect [4]: anti-complementary effect

Compound: NCCCCCC(=O)O [epsilon-aminocaproic acid]
- success in the treatment of hereditary angioneurotic edema [5]: used with success

Compound: NC[C@H]1CC[C@H](C(=O)O)CC1 [tranexamic acid]
- success in the treatment of hereditary angioneurotic edema [5]: used with success

Compound: heparin
- anti-complementary effect [4]: anti-complementary effect

Compound: pentosanpolysulfoester
- anticomplementary activity on human serum [6]: anticomplementary activity
